The NIST ThermoML archive (doi:10.1016/j.fluid.2014.09.014)

Assay: refractive index (other wavelength) (dimensionless); xn = mol fraction of the nth substance listed
Details: 101 kPa, Liquid, Standard Abbe refractometry

CC(C)OC(C)C [diisopropyl ether] + CO
refractive index
Details	Wavelength=40.47 nm	Wavelength=435.8 nm	Wavelength=486.1 nm	Wavelength=546.1 nm	Wavelength=587.6 nm	Wavelength=589.3 nm	Wavelength=632.8 nm	Wavelength=644 nm	Wavelength=706.5 nm
298.15 K, x2 = 0	–	–	–	–	–	1.3653	1.36402	1.36373	1.36237
298.15 K, x2 = 0.0423	–	–	–	–	–	1.36528	1.364	1.3637	1.36228
298.15 K, x2 = 0.0424	–	–	–	–	–	1.36525	1.36397	1.36367	1.36226
298.15 K, x2 = 0.082	–	–	–	–	–	1.36523	1.36395	1.36365	1.36224
298.15 K, x2 = 0.0822	–	–	–	–	–	1.36524	1.36396	1.36367	1.36226
298.15 K, x2 = 0.1171	–	–	–	–	–	1.36508	1.36381	1.36352	1.3621
298.15 K, x2 = 0.1271	–	–	–	–	–	1.3651	1.36381	1.36352	1.36211
298.15 K, x2 = 0.1827	–	–	–	–	–	1.36473	1.36346	1.36317	1.36175
298.15 K, x2 = 0.2162	–	–	–	–	–	1.36528	1.364	1.3637	1.36228
298.15 K, x2 = 0.251	–	–	–	–	–	1.36465	1.36338	1.36308	1.36166
298.15 K, x2 = 0.3298	–	–	–	–	–	1.36386	1.3626	1.36231	1.36089
298.15 K, x2 = 0.3577	–	–	–	–	–	1.36246	1.36121	1.36091	1.35951
298.15 K, x2 = 0.4497	–	–	–	–	–	1.36158	1.36034	1.36004	1.35863
298.15 K, x2 = 0.4525	–	–	–	–	1.36217	1.36212	1.36087	1.36057	1.35916
298.15 K, x2 = 0.522	–	–	–	–	1.35991	1.35986	1.35863	1.35833	1.35694
298.15 K, x2 = 0.5543	–	–	–	–	1.35952	1.35947	1.35812	1.35777	1.35655
298.15 K, x2 = 0.609	–	–	–	–	1.35663	1.35658	1.35536	1.35507	1.35369
298.15 K, x2 = 0.6529	–	–	–	–	1.35515	1.3551	1.35389	1.3536	1.35223
298.15 K, x2 = 0.7504	–	–	–	–	1.3513	1.35125	1.35005	1.34978	1.34842
298.15 K, x2 = 0.804	–	–	–	–	1.3471	1.34706	1.3459	1.34562	1.34426
298.15 K, x2 = 0.807	–	–	–	–	1.34699	1.34694	1.34578	1.3455	1.34415
298.15 K, x2 = 0.8727	–	–	–	–	1.34182	1.34177	1.34062	1.34036	1.33906
298.15 K, x2 = 0.9233	–	–	–	–	1.33495	1.3349	1.33379	1.33353	1.33225
298.15 K, x2 = 0.9253	–	–	–	–	1.33679	1.33674	1.33564	1.33535	1.33407
298.15 K, x2 = 0.9527	–	–	–	–	1.33364	1.33359	1.33248	1.33222	–
298.15 K, x2 = 0.9773	–	–	–	–	1.33017	1.33012	1.32903	1.32879	1.32755
298.15 K, x2 = 0.989	–	–	–	–	1.329	1.32895	1.32786	1.32761	1.32641
298.15 K, x2 = 0.9964	–	–	–	–	1.32759	1.32754	1.32645	1.32621	1.32502
303.15 K, x2 = 0	1.37321	1.37022	1.36687	1.36406	1.3626	1.36255	1.3613	1.361	1.3596
303.15 K, x2 = 0.0423	1.37316	1.37019	–	–	–	–	–	–	–
303.15 K, x2 = 0.0424	1.37317	1.37022	1.36682	1.36403	1.36256	1.36251	1.36124	1.36094	1.35954
303.15 K, x2 = 0.082	1.3731	1.37014	1.36677	1.36396	1.3625	1.36245	1.3612	1.3609	1.35948
303.15 K, x2 = 0.0822	1.37318	1.37022	1.36685	1.36406	1.36261	1.36256	1.36129	1.36099	–
303.15 K, x2 = 0.1171	1.37301	1.37006	1.36669	1.36389	1.36245	1.3624	1.36114	1.36084	1.35943
303.15 K, x2 = 0.1271	1.37303	1.37006	1.36672	1.36392	1.36246	1.3624	1.36116	1.36086	1.35944
303.15 K, x2 = 0.1827	1.37268	1.36973	1.36639	1.36258	1.36214	1.36209	1.36085	1.36055	1.35913
303.15 K, x2 = 0.2162	1.37251	1.36956	1.36618	1.36341	1.36196	1.36191	1.36065	1.36036	1.35895
303.15 K, x2 = 0.251	1.3735	1.36955	1.36621	1.36343	1.36198	1.36193	1.36068	1.36039	1.35898
303.15 K, x2 = 0.3298	1.37186	1.36893	1.36561	1.36283	1.3614	1.36134	1.36011	1.35981	1.35839
303.15 K, x2 = 0.3577	1.37205	1.36912	1.36581	1.36302	1.36159	1.36153	1.36029	1.35999	1.35898
303.15 K, x2 = 0.4497	1.3695	1.36661	1.36334	1.36058	1.35917	1.35912	1.35789	1.3576	1.35619
303.15 K, x2 = 0.4525	1.37001	1.36711	1.36382	1.36107	1.35964	1.35959	1.35835	1.35805	1.35666
303.15 K, x2 = 0.522	1.3677	1.36484	1.36159	1.35886	1.35746	1.35741	1.35619	1.3559	1.3545
303.15 K, x2 = 0.5543	1.36716	1.36432	1.36106	1.35836	1.35695	1.3569	1.35568	1.35539	1.35399
303.15 K, x2 = 0.609	1.36428	1.36149	1.35828	1.35561	1.35421	1.35416	1.35295	1.35266	1.35129
303.15 K, x2 = 0.6529	1.36277	1.35999	1.35681	1.35414	1.35275	1.35269	1.3515	1.35122	1.34985
303.15 K, x2 = 0.7504	1.35877	1.35604	1.35295	1.35029	1.34898	1.34888	1.34771	1.34743	1.34608
303.15 K, x2 = 0.804	1.35438	1.35174	1.34869	1.34608	1.34474	1.34469	1.34354	1.34327	1.34193
303.15 K, x2 = 0.807	1.35432	1.35168	1.34861	1.34603	1.34467	1.34462	1.34346	1.3432	1.34186
303.15 K, x2 = 0.8727	1.34909	1.34651	1.34352	1.34092	1.33965	1.3396	1.33846	1.3382	1.33691
303.15 K, x2 = 0.9233	1.34198	1.3395	1.33657	1.33409	1.33279	1.33274	1.33164	1.33139	1.33015
303.15 K, x2 = 0.9253	1.34381	1.34132	1.33839	1.3359	1.33458	1.33453	1.33342	1.33317	1.3319
303.15 K, x2 = 0.9527	1.34063	1.33817	1.33525	1.33279	1.3315	1.33145	1.33035	1.33009	1.32886
303.15 K, x2 = 0.9773	1.33704	1.33466	1.33174	1.32933	1.32803	1.32799	1.32689	1.32665	1.32546
303.15 K, x2 = 0.989	1.33587	1.33351	1.33062	1.3282	1.32693	1.32688	1.32579	1.32555	1.32216
303.15 K, x2 = 0.9964	1.33483	1.33219	1.32929	1.32688	1.32561	1.32557	1.32451	1.32427	1.32308
308.15 K, x2 = 0	1.37035	–	–	–	–	–	–	–	–
308.15 K, x2 = 0.0423	1.37024	–	–	–	–	–	–	–	–
308.15 K, x2 = 0.0424	1.37025	–	–	–	–	–	–	–	–
308.15 K, x2 = 0.082	1.37021	–	–	–	–	–	–	–	–
